Measurements: patent US12435045B2, “Tyrosine kinase inhibitors and pharmaceutical application thereof” (JIANGSU CONCORD BIOTECHNOLOGY CO., LTD, priority 2021, dated 2025)

Test system: 40 L of mesothelioma cell lines
Test: cell plate cloning experiment to detect cell proliferation
Format: cell-based
Settings: 30 μM pretreatment; 200 cells/well; results after 10 days; compared with gefitinib 30 μM; FIG. 2
Description: Effects of the compound prepared in Example 1 and gefitinib were tested and compared. Experiment 1 included cell plate cloning experiments to detect cell proliferation.
• (1) 30 μM of gefitinib was used to pretreat one group of 40 L of mesothelioma cell lines, 30 μM of the compound prepared in Example 1 were used to pretreat another group of 40 L of mesothelioma cell lines, and phosphate-buffered saline (PBS) was used as a blank control group; • (2) The 40 L of cell lines in different treatment groups were collected; the cells were counted under a microscope, the cells were inoculated in a six-well plate by adjusting the number of cells to 200 cells/well (2 mL) with corresponding complete medium, and the cells were cultured in an incubator containing 5% CO2 at 37° C.; • (3) Fresh complete medium was changed every 3 days; • (4) After about 7-10 days of continuous culture, the culture medium was discarded, the cells were carefully washed with 1×PBS 3 times, and 1 mL of 4% paraformaldehyde was added to each culture dish to fix the cells for 30 minutes. The paraformaldehyde was discarded, and the cells were washed again with 1×PBS 3 times. The cells were stained with crystal violet at room temperature for 10 min, the staining solution was discarded, and the cells were washed with 1×PBS 3 times; and • (5) the cells were pictured with a camera and counted for statistical analysis. 2. […]

`COc1cc2ncnc(Nc3ccc(F)c(Cl)c3)c2cc1NC(=O)CBr` [Example 1, 4-((4-fluoro-3-chlorophenyl)amino)-7-methoxy-6-((N-bromoacetyl)amino)quinazoline] was tested. Which “ability in inhibiting the proliferation of tumor cells (plate cloning, colony count)” value did it give?
The value was “significantly better ability in inhibiting the proliferation of tumor cells than gefitinib”.
